# In patent publication US10765114B2, “4-amino-6-(pyridyl and 2-substitutedphenyl)-picolinates and 6-amino-2-(pyridyl and 2-substitutedphenyl)-pyrimidine-4-carboxylates and their use as herbicides” (Dow AgroSciences LLC, priority 2013, dated 2020):
# Test system: Key Grass and Sedge Weeds as well as Grass Crops
# Test: Post-Emergent Test II (Table 6)
# Type: in vivo
# Conditions: post-emergence, 336 h, CYPSS, 140 g ai/ha, 14 days after application, read-out: Visual Growth Reduction (%) 14 Days After Application CYPSS
# How it was run: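 Visual injury ratings (0 = no injury, 100 = complete kill) taken 14 days after treatment, relative to untreated controls. Compounds, in an acetone/DMSO aqueous carrier with crop oil and surfactant, were applied by track sprayer at 187 L/ha, in a twofold dilution series from the top rate, to plants at the first to second true-leaf stage.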
row,Structure (SMILES),pest or weed control at 140 g/ha [%]
1,"Nc1c(F)c(-c2ccc(C(F)(F)F)nc2)nc(C(=O)O)c1Cl [Compound 46, 4-amino-5-chloro-3-fluoro-6′-(trifluoromethyl)-[2,3′-bipyridine]-6-carboxylic acid]",95 to 100

# Same assay, conditions: post-emergence, 336 h, DIGSA: crabgrass (Digitaria sanguinalis), 70 g ai/ha, 14 days after application, read-out: Visual Growth Reduction (%) 14 Days After Application DIGSA
row,Structure (SMILES),pest or weed control at 70 g/ha [%]
1,"Nc1c(F)c(-c2ccc(C(F)(F)F)nc2)nc(C(=O)O)c1Cl [Compound 46, 4-amino-5-chloro-3-fluoro-6′-(trifluoromethyl)-[2,3′-bipyridine]-6-carboxylic acid]",95 to 100

# Same assay, conditions: post-emergence, 336 h, DIGSA: crabgrass (Digitaria sanguinalis), 140 g ai/ha, 14 days after application, read-out: Visual Growth Reduction (%) 14 Days After Application DIGSA
row,Structure (SMILES),pest or weed control at 140 g/ha [%]
1,"Nc1c(F)c(-c2ccc(C(F)(F)F)nc2)nc(C(=O)O)c1Cl [Compound 46, 4-amino-5-chloro-3-fluoro-6′-(trifluoromethyl)-[2,3′-bipyridine]-6-carboxylic acid]",95 to 100

# Same assay, conditions: post-emergence, 336 h, ECHSS, 70 g ai/ha, 14 days after application, read-out: Visual Growth Reduction (%) 14 Days After Application ECHSS
row,Structure (SMILES),pest or weed control at 70 g/ha [%]
1,"Nc1c(F)c(-c2ccc(C(F)(F)F)nc2)nc(C(=O)O)c1Cl [Compound 46, 4-amino-5-chloro-3-fluoro-6′-(trifluoromethyl)-[2,3′-bipyridine]-6-carboxylic acid]",95 to 100

# Same assay, conditions: post-emergence, 336 h, ECHSS, 140 g ai/ha, 14 days after application, read-out: Visual Growth Reduction (%) 14 Days After Application ECHSS
row,Structure (SMILES),pest or weed control at 140 g/ha [%]
1,"Nc1c(F)c(-c2ccc(C(F)(F)F)nc2)nc(C(=O)O)c1Cl [Compound 46, 4-amino-5-chloro-3-fluoro-6′-(trifluoromethyl)-[2,3′-bipyridine]-6-carboxylic acid]",95 to 100

# Same assay, conditions: post-emergence, 336 h, ORYSS (crop), 70 g ai/ha, 14 days after application, read-out: Visual Growth Reduction (%) 14 Days After Application ORYSS
row,Structure (SMILES),pest or weed control at 70 g/ha [%]
1,"Nc1c(F)c(-c2ccc(C(F)(F)F)nc2)nc(C(=O)O)c1Cl [Compound 46, 4-amino-5-chloro-3-fluoro-6′-(trifluoromethyl)-[2,3′-bipyridine]-6-carboxylic acid]",75 to 84

# Same assay, conditions: post-emergence, 336 h, ORYSS (crop), 140 g ai/ha, 14 days after application, read-out: Visual Growth Reduction (%) 14 Days After Application ORYSS
row,Structure (SMILES),pest or weed control at 140 g/ha [%]
1,"Nc1c(F)c(-c2ccc(C(F)(F)F)nc2)nc(C(=O)O)c1Cl [Compound 46, 4-amino-5-chloro-3-fluoro-6′-(trifluoromethyl)-[2,3′-bipyridine]-6-carboxylic acid]",95 to 100

# Same assay, conditions: post-emergence, 336 h, SETFA: giant foxtail (Setaria faberi), 70 g ai/ha, 14 days after application, read-out: Visual Growth Reduction (%) 14 Days After Application SETFA
row,Structure (SMILES),pest or weed control at 70 g/ha [%]
1,"Nc1c(F)c(-c2ccc(C(F)(F)F)nc2)nc(C(=O)O)c1Cl [Compound 46, 4-amino-5-chloro-3-fluoro-6′-(trifluoromethyl)-[2,3′-bipyridine]-6-carboxylic acid]",95 to 100

# Same assay, conditions: post-emergence, 336 h, SETFA: giant foxtail (Setaria faberi), 140 g ai/ha, 14 days after application, read-out: Visual Growth Reduction (%) 14 Days After Application SETFA
row,Structure (SMILES),pest or weed control at 140 g/ha [%]
1,"Nc1c(F)c(-c2ccc(C(F)(F)F)nc2)nc(C(=O)O)c1Cl [Compound 46, 4-amino-5-chloro-3-fluoro-6′-(trifluoromethyl)-[2,3′-bipyridine]-6-carboxylic acid]",95 to 100

# Same assay, conditions: post-emergence, 336 h, SORVU: grain sorghum (Sorghum vulgare), 70 g ai/ha, 14 days after application, read-out: Visual Growth Reduction (%) 14 Days After Application SORVU
row,Structure (SMILES),pest or weed control at 70 g/ha [%]
1,"Nc1c(F)c(-c2ccc(C(F)(F)F)nc2)nc(C(=O)O)c1Cl [Compound 46, 4-amino-5-chloro-3-fluoro-6′-(trifluoromethyl)-[2,3′-bipyridine]-6-carboxylic acid]",85 to 94

# Same assay, conditions: post-emergence, 336 h, SORVU: grain sorghum (Sorghum vulgare), 140 g ai/ha, 14 days after application, read-out: Visual Growth Reduction (%) 14 Days After Application SORVU
row,Structure (SMILES),pest or weed control at 140 g/ha [%]
1,"Nc1c(F)c(-c2ccc(C(F)(F)F)nc2)nc(C(=O)O)c1Cl [Compound 46, 4-amino-5-chloro-3-fluoro-6′-(trifluoromethyl)-[2,3′-bipyridine]-6-carboxylic acid]",85 to 94

# Same assay, conditions: post-emergence, 336 h, TRZSS (crop), 70 g ai/ha, 14 days after application, read-out: Visual Growth Reduction (%) 14 Days After Application TRZSS
row,Structure (SMILES),pest or weed control at 70 g/ha [%]
1,"Nc1c(F)c(-c2ccc(C(F)(F)F)nc2)nc(C(=O)O)c1Cl [Compound 46, 4-amino-5-chloro-3-fluoro-6′-(trifluoromethyl)-[2,3′-bipyridine]-6-carboxylic acid]",75 to 84

# Same assay, conditions: post-emergence, 336 h, TRZSS (crop), 140 g ai/ha, 14 days after application, read-out: Visual Growth Reduction (%) 14 Days After Application TRZSS
row,Structure (SMILES),pest or weed control at 140 g/ha [%]
1,"Nc1c(F)c(-c2ccc(C(F)(F)F)nc2)nc(C(=O)O)c1Cl [Compound 46, 4-amino-5-chloro-3-fluoro-6′-(trifluoromethyl)-[2,3′-bipyridine]-6-carboxylic acid]",85 to 94

# Same assay, conditions: post-emergence, 336 h, ZEAMX: maize, corn (Zea mays), 70 g ai/ha, 14 days after application, read-out: Visual Growth Reduction (%) 14 Days After Application ZEAMX
row,Structure (SMILES),pest or weed control at 70 g/ha [%]
1,"Nc1c(F)c(-c2ccc(C(F)(F)F)nc2)nc(C(=O)O)c1Cl [Compound 46, 4-amino-5-chloro-3-fluoro-6′-(trifluoromethyl)-[2,3′-bipyridine]-6-carboxylic acid]",85 to 94

# Same assay, conditions: post-emergence, 336 h, ZEAMX: maize, corn (Zea mays), 140 g ai/ha, 14 days after application, read-out: Visual Growth Reduction (%) 14 Days After Application ZEAMX
row,Structure (SMILES),pest or weed control at 140 g/ha [%]
1,"Nc1c(F)c(-c2ccc(C(F)(F)F)nc2)nc(C(=O)O)c1Cl [Compound 46, 4-amino-5-chloro-3-fluoro-6′-(trifluoromethyl)-[2,3′-bipyridine]-6-carboxylic acid]",85 to 94

# Test system: not given
# Test: not given
# Conditions: not given
row,melting point [°C],Structure (SMILES)
1,164,"Nc1c(F)c(-c2ccc(C(F)(F)F)nc2)nc(C(=O)O)c1Cl [Compound 46, 4-amino-5-chloro-3-fluoro-6′-(trifluoromethyl)-[2,3′-bipyridine]-6-carboxylic acid]"
